Measured values: ChEMBL document CHEMBL1130552, “Synthesis and biological evaluation of 14,15-dehydro-LTA4 analog” (1997)

Organism: Cavia porcellus
Assay: Relative contractile potency in guinea pig ileum assay compared to 14,15-dehydro-LTA 4 methyl ester
Type: functional

SMILES: CCCCCC#CC\C=C/C=C/C=C/[C@@H](SC[C@H](NC(=O)CC[C@H](N)C(=O)O)C(=O)NCC(=O)O)[C@@H](O)CCCC(=O)O
- Relative contractile potency: 0.9
